From patent publication US9783488B2 (CHDI Foundation, Inc., priority 2013, dated 2017)

Legend:
[1] = tested on: cellular histone deacetylase enzymatic activity in Jurkat E6-1 cells; test: Inhibition of cellular HDAC activity in Jurkat E6-1 cells, fluorogenic substrate Boc-Lys(Tfa)-AMC; type: cell-based; settings: Homo sapiens, read-out: Cell IC50
From the text: Analysis of Inhibition of Cellular HDAC Activity with Class IIa Histone Deacetylase (HDAC) Inhibitors
The potency of Class IIa Histone Deacetylase (HDAC) inhibitors is quantified by measuring the cellular histone deacetylase enzymatic activity using the fluorogenic substrate, Boc-Lys(Tfa)-AMC. After penetration in Jurkat E6-1 cells, the substrate is deacetylated to Boc-Lys-AMC. After cell lysis and cleavage by trypsin, the fluorophore AMC is released from the deacetylated substrate only. The fluorescence of the sample is directly related to the histone deacetylase activity in the sample.
Jurkat E6.1 cell culture and plating. Jurkat E6.1 cells are cultured according to standard cell culture protocols in Jurkat E6.1 Growth Media (RPMI without phenol red, 10% FBS, 1 mM HEPES, and 1 mM Sodium Pyruvate). Jurkat E6.1 cells are counted using a Coulter Counter and resuspended in Jurkat E6.1 growth media at a concentration of 75,000 cells/35 μl. 35 μl or 75,000 cells is seeded into Greiner microtitre assay plates. The plates are then incubated at 37° C. and 5% CO2 while other assay components are being prepared.
Serially dilute HDAC inhibitor compounds. Serial dilutions of the HDAC inhibitors and control reference compound (1-(5-(3-((4-(1,3,4-oxadiazol-2-yl)phenoxy)methyl)-1,2,4-oxadiazol-5-yl)thiophen-2-yl)-2,2,2-trifluoroethanone) are made by first resuspending the lyophilized compound to a final concentration of 10 mM in […]. Stocks of 70 μl aliquots of the 10 mM compound in DMSO are prepared and stored at −20° C. From one stock aliquot of each compound to be tested and the reference compound, a 16-point serial dilution is prepared according to Table 1 using a 125 μl 16-channel Matrix multi-channel pipette.
2 μl (200×) of each diluted solution and each control (full activity: 100% DMSO alone or full inhibition 1 mM) is stamped into V-bottom polypropylene 384-well compound plates using either the Bravo, Janus, or 12.5 μl 16-channel Matrix multi-channel pipette. Each well with the 200× compound solution is diluted 1:20 by the addition of 38 μl Jurkat assay buffer+DMSO (9.5% DMSO, RPMI without phenol red, 0.09% FBS, 9 mM Hepes, and 0.9 mM Sodium Pyruvate equilibrated to r.t.)
Prepare 5× (500 μM) Boc-Lys(Tfa)-AMC substrate. 5× (500 μM) substrate is prepared just prior to the addition to the assay. The 5× substrate is prepared by diluting a 100 mM Boc-Lys(Tfa)-AMC in DMSO solution 1:200 by adding it drop-wise to Jurkat assay medium (RPMI without phenol red, 0.1% FBS, 10 mM Hepes, and 1 mM Sodium Pyruvate equilibrated to 37° C.) while vortexing at slow speed to prevent precipitation.
Prepare 3× Lysis Buffer. 10 mL of 3× lysis buffer is prepared with 8.8 mL of 3× stock lysis buffer (50 mM Tris-HCl, pH 8.0, 137 mM NaCl, 2.7 mM KCl, 1 mM MgCl2, 1% Nonidet P40 Substitute equilibrated to r.t.) and 1.2 mL of 3 mg/mL Trypsin equilibrated to r.t.
Assay. 5 μl of each solution of 1:20 diluted compound from above is transferred to the Greiner microtitre assay plates with 75,000 cells/well using the Bravo. Cells are then incubated for 2 hours at 37° C. and 5% CO2. The assay is then started by adding 10 μl of 5× (500 μM) substrate to the assay plate using either the Bravo or 16-channel Matrix multi-channel pipette. The cells are then incubated for 3 hours at 37° C. and 5% CO2. Next, 25 μl of 3× lysis buffer is added to each well using either the 125 μl 16 channel pipette or the Bravo. The assay plate is then incubated overnight (15-16 hours) at 37° C. and 5% CO2. The following day, the plates are shaken on an orbital shaker for 1 minute at 900 rpm. Finally the top read fluorescence (Excitation: 355 nm, Emission: 460 nm) is measured using PerkinElmer EnVision.

[2] = target: human catalytic domain HDAC4 protein (amino acids 648-1032) (Homo sapiens (Human), UniProt P56524); test: Inhibition of HDAC4 catalytic domain enzymatic activity, fluorogenic substrate Boc-Lys(Tfa)-AMC; settings: HDAC4 catalytic domain enzyme, read-out: Biochemical HDAC4 IC50
Chain of human catalytic domain HDAC4 protein (amino acids 648-1032) (P56524 648-1032): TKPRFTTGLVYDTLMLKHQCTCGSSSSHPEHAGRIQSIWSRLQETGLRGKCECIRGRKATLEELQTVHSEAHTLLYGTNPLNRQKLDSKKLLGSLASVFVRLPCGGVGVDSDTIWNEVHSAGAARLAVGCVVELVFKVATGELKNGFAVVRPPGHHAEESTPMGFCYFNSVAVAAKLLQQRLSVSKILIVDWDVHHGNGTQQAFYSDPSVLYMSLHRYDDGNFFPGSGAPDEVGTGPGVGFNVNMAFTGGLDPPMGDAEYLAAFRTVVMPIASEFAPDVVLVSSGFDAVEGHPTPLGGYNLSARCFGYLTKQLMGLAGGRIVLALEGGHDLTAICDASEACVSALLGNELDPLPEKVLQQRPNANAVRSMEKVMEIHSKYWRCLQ
From the text: Analysis of Inhibition of HDAC4 with Class IIa Histone Deacetylase (HDAC) Inhibitors
The potency of Class IIa Histone Deacetylase (HDAC) inhibitors is quantified by measuring the Histone Deacetylase 4 (HDAC4) catalytic domain enzymatic activity using the fluorogenic substrate, Boc-Lys(Tfa)-AMC. The substrate is deacetylated to Boc-Lys-AMC by HDAC4. Cleavage by trypsin results in the release of the fluorophore AMC from the deacetylated substrate. The fluorescence of the sample is directly related to the histone deacetylase activity in the sample.
Serially dilute HDAC inhibitor compounds. […] Stocks of 6 μl aliquots of the 10 mM compound in DMSO are prepared and stored at […]. From one stock aliquot of each compound to be tested and the reference compound, a 16-point serial dilution is prepared according to Table 1 using a 125 μl 16-channel Matrix multi-channel pipette (Matrix Technologies Ltd).
2 μl (200×) of each diluted solution and each control (full activity: 100% DMSO alone or full inhibition 1 mM) is stamped into V-bottomed polypropylene 384-well compound plates using either the Bravo (384-well head from Agilent) or 12.5 μl 16-channel Matrix multi-channel pipette (Matrix Technologies Ltd).
Prepare HDAC4 catalytic domain enzyme (0.2 μg/mL).
Prepare 5× ([…]) Boc-Lys(Tfa)-AMC Substrate. 5× (50 μM) substrate is prepared just prior to the addition to the assay. A 1 mM substrate stock is made by diluting a 100 mM Boc-Lys(Tfa)-AMC in DMSO solution 1:100 by adding it drop-wise to assay buffer (equilibrated to r.t.) while vortexing at slow speed to prevent precipitation. The 5× substrate is prepared by diluting the 1 mM substrate solution 1:20 by adding it drop-wise to assay buffer (equilibrated to r.t.) while vortexing at slow speed to prevent precipitation.
Prepare 3× (30 μM) Developer/Stop Solution.
Assay. 5 μl of each solution of 1:20 diluted compound from above is transferred to a clear bottomed, black, 384-well assay plate using the Bravo or the Janus (384-well MDT head from Perkin Elmer). Using a 16-channel Matrix multi-channel pipette, 35 μl of the working solution of HDAC4 catalytic domain enzyme (0.2 μg/mL in assay buffer) is transferred to the assay plate. […] The assay plate is then shaken for two minutes on an orbital shaker at 900 rpm (rotations per minute). Next the plate is incubated for 15 minutes at 37° C. The reaction is stopped by adding 25 μl of 3× (3 μM) developer/stop solution to the assay plates using either the Bravo, Janus or a 16-channel Matrix multi-channel pipette. Assay plates are then shaken for 5 minutes on an orbital shaker at 1200 rpm. Next, the assay plates are incubated at 37° C. for 1 hour in a tissue culture incubator.

Row | IC50 [1] | IC50 [2] | SMILES
1 | 610 nM | 240 nM | Cc1c(F)cccc1[C@]1(C(=O)NO)CC[C@@H](c2cc(F)cnc2C2CC2)C1 [Example 43, (1S,3R)-3-(2-cyclopropyl-5-fluoropyridin-3-yl)-1-(3-fluoro-2-methylphenyl)-N-hydroxycyclopentanecarboxamide]
2 | 140 nM | 110 nM | Cc1c(F)cccc1[C@]1(C(=O)NO)CC[C@@H](c2ccc3c(cnn3C)c2)C1 (relative stereo) [Example 63, (1S,3R*)-1-(3-fluoro-2-methylphenyl)-N-hydroxy-3-(1-methyl-1H-indazol-5-yl)cyclopentanecarboxamide]
3 | 81 nM | 73 nM | Cc1c(F)cccc1[C@]1(C(=O)NO)CC[C@@H](c2ccc3cn[nH]c3c2F)C1 (relative stereo) [Example 61, (1S,3R*)-3-(7-fluoro-1H-indazol-6-yl)-1-(3-fluoro-2-methylphenyl)-N-hydroxycyclopentanecarboxamide]
4 | 8400 nM | 3600 nM | Cc1c(F)cccc1[C@@]1(C(=O)NO)CC[C@@H](c2cncc(F)c2)C1 (stereo in doubt) [Example 40, (1R,3R*)-1-(3-fluoro-2-methylphenyl)-3-(5-fluoropyridin-3-yl)-N-hydroxycyclopentanecarboxamide]
5 | 400 nM | 170 nM | Cc1c(F)cccc1[C@]1(C(=O)NO)CC[C@@H](c2ccnn2C)C1 (relative stereo) [Example 49, (1S,3R*)-1-(3-Fluoro-2-methylphenyl)-N-hydroxy-3-(1-methyl-1H-pyrazol-5-yl)cyclopentane carboxamide]
6 | 1830 nM | 200 nM | Cc1c(F)cccc1[C@]1(C(=O)NO)CC[C@H](c2ccc(F)cn2)C1 (relative stereo) [Example 11, (1S,3S*)-1-(3-fluoro-2-methylphenyl)-3-(5-fluoropyridin-2-yl)-N-hydroxycyclopentane carboxamide]
7 | 1390 nM | 140 nM | Cc1c(F)cccc1[C@]1(C(=O)NO)CC[C@@H](c2cncc(F)c2)C1 (stereo in doubt) [Example 10, (1S,3R*)-1-(3-fluoro-2-methyl-phenyl)-3-(5-fluoropyridin-3-yl)-N-hydroxycyclopentanecarboxamide]
8 | 38000 nM | 4100 nM | Cc1c(F)cccc1[C@]1(C(=O)NO)CC[C@H](c2cncc(F)c2)CC1 [Example 99, (1r,4r)-1-(3-fluoro-2-methylphenyl)-4-(5-fluoropyridin-3-yl)-N-hydroxycyclohexanecarboxamide]
9 | 1280 nM | 150 nM | Cc1c(F)cccc1[C@]1(C(=O)NO)CC[C@H](c2cncc(F)c2)C1 (stereo in doubt) [Example 9, (1S,3S*)-1-(3-fluoro-2-methyl-phenyl)-3-(5-fluoropyridin-3-yl)-N-hydroxycyclopentanecarboxamide]
10 | 8400 nM | 720 nM | Cc1c(F)cccc1[C@@]1(C(=O)NO)CC[C@H](c2cncc(F)c2)C1 (stereo in doubt) [Example 39, (1R,3S*)-1-(3-fluoro-2-methylphenyl)-3-(5-fluoropyridin-3-yl)-N-hydroxycyclopentanecarboxamide]

Second part, the compound before the results:

Row | SMILES | IC50 [1] | IC50 [2]
11 | Cc1c(F)cccc1C1(C(=O)NO)CCCCCC1 [Example 107, 1-(3-Fluoro-2-methylphenyl)-N-hydroxycycloheptanecarboxamide] | > 50000 nM | > 50000 nM
12 | O=C(NO)C1(c2ccc(Cl)cc2)CCCC1 [Example 20, 1-(4-chlorophenyl)-N-hydroxycyclopentanecarboxamide] | > 50000 nM | 24000 nM
13 | O=C(NO)C1(c2ccccc2)CCCCC1 [Example 98, 1-phenyl-N-hydroxycyclohexylcarboxamide] | > 50000 nM | > 50000 nM
14 | O=C(NO)C1(c2ccccc2F)CCCC1 [Example 19, 1-(2-fluorophenyl)-N-hydroxycyclopentanecarboxamide] | 44700 nM | 4600 nM
15 | Cc1c(F)cccc1[C@]1(C(=O)NO)CC[C@@H](OCc2ccc(F)cc2)CC1 [Example 102, (1s,4s)-1-(3-fluoro-2-methylphenyl)-4-((4-fluorobenzyl)oxy)-N-hydroxycyclohexanecarboxamide] | 49000 nM | 14000 nM
16 | CCc1ccccc1C1(C(=O)NO)CCCC1 [Example 32, 1-(2-Ethylphenyl)-N-hydroxycyclopentanecarboxamide] | 6500 nM | 1100 nM
17 | O=C(NO)C1(c2cccc3ccsc23)CCCC1 [Example 38, 1-(Benzo[b]thiophen-7-yl)-N-hydroxycyclopentanecarboxamide] | 4600 nM | 610 nM
18 | N#Cc1ccccc1C1(C(=O)NO)CCCC1 [Example 27, 1-(2-Cyanophenyl)-N-hydroxycyclopentanecarboxamide] | > 50000 nM | > 50000 nM
19 | Cc1c(F)cccc1[C@]1(C(=O)NO)CC[C@@H](c2ccc3cnn(C)c3c2)CC1 [Example 103, (1s,4s)-1-(3-fluoro-2-methylphenyl)-N-hydroxy-4-(1-methyl-1H-indazol-6-yl)cyclohexanecarboxamide] | 26000 nM | 4200 nM
20 | Cc1c(F)cccc1[C@]1(C(=O)NO)CC[C@H](c2ccc3c(c2)NCC(C)(C)O3)C1 (relative stereo) [Example 73] | 410 nM | 270 nM
21 | Cc1c(F)cccc1[C@]1(C(=O)NO)CC[C@H](c2ccc3cnn(C)c3c2)CC1 [Example 104, (1r,4r)-1-(3-fluoro-2-methylphenyl)-N-hydroxy-4-(1-methyl-1H-indazol-6-yl)cyclohexanecarboxamide] | 650 nM | 950 nM
